Structures are written as SMILES.

For assay [1], the system named is Male CD-1 mice. Description: AVP induced scratching, digging and grooming behavior in mouse. The settings on record: 100 mg/kg, po; AVP i.c.v.; 15 minutes observation. Format: in vivo. From the text: Administration of Arginine-Vasopressin (AVP) intracerebroventricularly (i.c.v.) elicits characteristic scratching, digging and grooming behavior in mice that can be measured readily and is sensitive to blockade with vasopressin antagonists (Meisenberg, Ann N Y Acad Sci. 525:257-69, 1988; Bleickardt et. al., Psychopharmacology (Berl). 202(4):711-8, 2009).
Male CD-1 mice (Charles River Germany) weighing 22-25 g upon the study in-life were used for this study. Animals were housed in groups of 4-5 per cage in standard temperature (22±1° C.) and light-controlled environment (lights on from 7 am to 8 pm), with ad libitum access to food and water. Prior to commencing any procedures to the mice, they were allowed to habituate in the vivarium for a minimum of 7 days. Anesthesia was induced in a plexiglass chamber for 2-3 min with 5% isoflurane and maintained through a snout mask with 1-2% isoflurane thereafter. A homeothermic blanket system with a rectal probe was used to monitor and maintain the animal's body temperature at 37.0° C.±1.5° C. during the operation. Anesthetized mice were placed in a stereotaxic apparatus and skin between the ears shaved and disinfected with povidone-iodine solution (Betadine). A 10-μl Hamilton syringe with 28-gauge needle was used for the i.c.v. injections. All animals receive identical AVP injections (3.689 μM) or sterile saline (0.9% sodium chloride solution) into the right lateral ventricle at the following coordinates: AP=+0.5 mm; ML=+1.0 mm; DV=−2.5 mm (approximately from bregma). The actual coordinates were calculated by the distance from the point in midline between the eyes and no skin incision was made. […]
Mice were observed and video-recorded for 15 minutes following AVP/saline administration and behaviors were measured (in seconds) and a cumulative time was calculated. […] Using this assay, balovaptan (100 and 300 mg/kg, po), JNJ-17308616 (30, 100 mg/kg, po) and Compound No. 1-83B (100, 300, 500 mg/kg, po) were evaluated for antagonist activity to AVP-induced scratching behaviors.

Assay [2] addresses T1, V1a receptors (Rattus norvegicus, UniProt P30560).
T1 construct: Rat choroid plexus (RCP) cell lines express functional V1a receptors; endogenous in cells; host or cells: rat choroid plexus (RCP) cell line, RCP P9(18)
The experiment in a line: AVP induced phospho-ERK measurement in rat choroid plexus (RCP) cells. Format: cell-based. Conditions: RCP cells stimulated with AVP, pERK1/2 to total ERK1/2 ratio. As for the experimental part: Rat choroid plexus (RCP) cell lines express functional V1a receptors measured by increased calcium concentrations in response to V1a receptor agonists (Battle et al., Biochem. Biophys. Res. Comm. 2000).
RCP P9(18) cells were seeded 30K/well, in 100 μl growth medium containing 10% FBS in polystyrene 96-well plates and incubated at 37° C., 5% CO2 and incubated overnight. The following day, the growth medium was replaced with 50 μl pre-warmed HBSS containing 20 mM HEPES and the cells were incubated at 37° C., 5% CO2 for 1.5 hrs. 1 mM AVP (Sigma V9879) was freshly prepared in distilled water in a glass vial and diluted to 3× concentrations in HBSS containing 20 mM HEPES and 0.1% BSA in glass vials and kept on ice. […] Final concentrations of AVP: 10, 100 or 1000 nM. […] Cells were lysed with 25 μl 4×CST lysis buffer containing protease and phosphatase inhibitors, PMSF and SDS and then stored at −80° C., for 48 h. The lysates were thawed, centrifuged at 2000 g for 30 min at 4° C. and 40 μl supernatants assayed for pERK1/2 (Thr202/Tyr204; Thr185/Tyr187) and total ERK1/2 using MSD kit K15107D. The MSD ECL data for the lysates were corrected for no cell blanks, then phospho-protein levels expressed as a ratio to the total ERK1/2 level. The ratios were expressed as fold-change from the vehicle-treated control at each timepoint.

T1 sequence (P30560 whole entry): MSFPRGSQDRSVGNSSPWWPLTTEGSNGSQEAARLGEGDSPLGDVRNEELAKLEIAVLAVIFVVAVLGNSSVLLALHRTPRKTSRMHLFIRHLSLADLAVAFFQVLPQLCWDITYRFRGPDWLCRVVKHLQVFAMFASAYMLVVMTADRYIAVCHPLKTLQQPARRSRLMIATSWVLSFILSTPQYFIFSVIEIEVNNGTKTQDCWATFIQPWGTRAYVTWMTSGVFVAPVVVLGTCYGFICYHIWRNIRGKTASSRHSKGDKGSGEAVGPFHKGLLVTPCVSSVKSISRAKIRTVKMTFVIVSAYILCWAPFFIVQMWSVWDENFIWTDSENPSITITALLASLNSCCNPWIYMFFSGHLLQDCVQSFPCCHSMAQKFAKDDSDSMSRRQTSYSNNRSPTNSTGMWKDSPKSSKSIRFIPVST

As for `CN1Cc2cc(Cl)ccc2-n2c(nnc2[C@H]2CC[C@H](Oc3ccccn3)CC2)C1` [balovaptan, reference compound], the “antagonist activity to AVP-induced scratching behaviors” value in assay [1] is “effective”. Besides, the IC50 worked out at 0.0109 µM in assay [2] (first study) and 0.0136 µM in assay [2] (second study).

(Values after US12152038B2, “Vasopressin receptor antagonists and products and methods related thereto” (Neumora Therapeutics, Inc., priority 2017, dated 2024).)
